Assay results published in a melting point compilation (Tetko et al.; mined from patent text by program, amines drawn as free bases though some values may be those of a salt).

First: O=C1c2ccc([N+](=O)[O-])cc2C(=O)N1CC(=O)N1c2ccccc2N(Cc2ccccc2)C(=O)[C@H]2CCC[C@H]21 (relative stereo)
Second: O=C1CN(C(=O)COc2cc(-c3ccccc3)nc3ccccc23)CCN1
The melting point of the first is lower: 196 to 198 °C for the first, 215 °C for the second.

Compared with `COc1cccc2sc(-c3ccc(C)cc3)nc12`, `COc1cccc2c1C(=O)OC2c1ccccc1` (centres undefined) is higher in melting point: 98 to 100 °C for the first, 135 to 138 °C for the second.

First: O=[N+]([O-])c1cc(Sc2ccc(Cl)cc2)[nH]c1-c1ccc(Cl)cc1
Second: COc1ccc(-c2cc3c(Nc4cccc(Cl)c4)ncnc3[nH]2)cc1
The melting point of the first is lower: 195 to 197 °C for the first, 294 to 295 °C for the second.

Compared with `CC(=O)Nc1ccc(CCNc2nc(C)nc3sc(C)cc23)cc1`, `N#Cc1ccnc(Oc2ccc(CCNc3ncnc4scnc34)cc2)c1` is lower in melting point: 248 °C for the first, 145 to 148 °C for the second.

First: Cc1nc2c(N)nc3ccccc3c2n1CC(C)(C)OCCS(C)(=O)=O
Second: CCOCc1nc2c(N)nc3cc(-c4cccc(NS(C)(=O)=O)c4)cnc3c2n1CC(C)(C)F
The melting point of the first is higher: 253 to 255 °C for the first, 208 to 209 °C for the second.

Compared with `Nc1nc(OCOC(=O)C2CCCC2)ncc1F`, `CC(=O)OCC1OC(n2cnc3c(N)nc(F)nc32)C(OC(C)=O)C1OC(C)=O` (centres undefined) is higher in melting point: 101 to 104 °C for the first, 195 to 196 °C for the second.

First: CCCc1nn(C)c2c(=O)n(CCNc3ccc(SC(C)(C)C(=O)OCC)cc3)c(CC)nc12
Second: CCC1CC(=O)N(Cc2ccc(NC(=O)C(C)(C)C)cc2)N=C1c1ccc(OC)c(OC)c1 (centres undefined)
The melting point of the first is lower: 105 to 107 °C for the first, 117 °C for the second.

First: CC(=NOCc1ccccc1Nc1c(Cl)ccc(C)c1Cl)C(=O)O
Second: CCOC(=O)c1cc(NC(=O)c2ccccc2OC(C)=O)cc(Cl)c1O
The melting point of the first is higher: 166 to 171 °C for the first, 163 to 166 °C for the second.

First: N#Cc1cc2c(cc1F)OCC21C(=O)Nc2ccccc21 (centres undefined)
Second: COc1cc2c(cc1O)CCN(C(=O)c1cccc(C#N)c1)C2=O
The melting point of the first is higher: 222 to 224 °C for the first, 197 to 198 °C for the second.

Compared with `NS(=O)(=O)c1ccc(N2CCN(Cc3ccc4c(c3)NC(=O)CO4)CC2)cc1`, `OCCN1CCN(C2=Nc3ccccc3Oc3cscc32)CC1` is higher in melting point: 150 to 153 °C for the first, 187 to 192 °C for the second.

Compared with `COC(=O)C(=Cc1cccc(O)c1)NC(C)=O`, `COC(=O)CC(=O)NC(N)Cc1ccccc1` (centres undefined) is lower in melting point: 115 °C for the first, 98 to 102 °C for the second.

Compared with `NC(=O)Nc1nc2n(n1)Cc1ccccc1-2`, `O=C(CCl)Nc1nc(-c2ccccc2)cs1` is lower in melting point: 261 to 263 °C for the first, 179 to 181 °C for the second.

First: Cc1c(F)cc(C(=O)O)cc1-c1ccc(C(=O)NCC(C)(C)C)cc1C(=O)Nc1nccs1
Second: COC(=O)c1ccc(N)c(NC(=O)c2ccc(C(C)(C)C)cc2)c1
The melting point of the first is higher: 196 to 200 °C for the first, 175 °C for the second.

First: COc1cc2c(cc1OC)C(c1sc(N)nc1C)=NCC2
Second: COc1ccc(C2C(C#N)=C(N)Oc3c2ccc2cnccc32)cc1OC (centres undefined)
The melting point of the first is higher: 233 to 237 °C for the first, 215 to 218 °C for the second.

First: CCNC(=O)c1ccc(-c2ccc3nnn(Cc4ccc5ncccc5c4)c3n2)cc1F
Second: O=C(NCCC(=O)N1CCOCC1)c1ccc(-c2ccc3nnn(Cc4ccc5ncccc5c4)c3n2)cc1F
The melting point of the first is lower: 207 to 209 °C for the first, 212 to 215 °C for the second.

First: COc1ccc2c3c(c(=O)oc2c1)CN(Cc1ccc(Cl)c(Cl)c1)CC3
Second: COc1ccc2cc(-c3ccc(Cl)c(-n4nc(C)c(C)n4)c3)c(=O)oc2c1
The melting point of the first is lower: 144 to 146 °C for the first, 180 °C for the second.

First: C=C(c1cncn1Cc1ccccc1)C(c1ccc(C)cc1)c1ccc(C)cc1
Second: c1ccc(-c2ccc(-c3cn4ccc5ccccc5c4n3)cc2)cc1
The melting point of the first is lower: 216 to 220 °C for the first, 221 to 222 °C for the second.

First: COc1ccccc1NC(=O)Nc1nc(Nc2ccccc2-c2ccccc2)nc(N(CCC(=O)O)Cc2ccc(F)c(F)c2)n1
Second: O=C(O)CNc1nc(NCc2ccc(NC(=O)c3ccc(F)cc3)cc2)c2ccccc2n1
The melting point of the first is lower: 115 to 120 °C for the first, 235 °C for the second.

First: CCOC(=O)c1c(Cn2cnc3ccccc32)nc2cc(OC)c(OC)cc2c1-c1ccc(OC)c(OC)c1
Second: COc1cc(OC)cc(C(NCC(=O)Nc2c(C(C)C)cccc2C(C)C)c2ccccc2)c1 (centres undefined)
The melting point of the first is lower: 99 to 100 °C for the first, 111 to 112 °C for the second.

First: O=C1CCc2ccc(O)c(c2)Oc2ccc(cc2)C=CCO1
Second: O=C(O)c1ccc(NC(=O)c2ccc3c(c2)OCCO3)cc1
The melting point of the first is lower: 148 to 151 °C for the first, 278 to 280 °C for the second.

First: CCOC(=O)c1cn(C2CC2)c2c(Cl)c(F)c(F)c(C)c2c1=O
Second: CCOC(=O)c1nn(-c2ccccc2Br)c(=O)c(C#N)c1C
The melting point of the first is higher: 153 to 154 °C for the first, 106 to 108 °C for the second.

First: C#Cc1ccc2c(c1)CC1SC(c3ccccc3)=NC21O (centres undefined)
Second: CNC(=O)Cn1nc(-c2ccccc2)c(-c2ccccc2)c(C#N)c1=O
The melting point of the first is lower: 118 °C for the first, 292 to 294 °C for the second.

First: CCCNC(=O)c1ccc(F)c2c1CC(N(CCCc1c[nH]c3ccc(F)cc13)C1CCC1)CO2 (centres undefined)
Second: c1ccc(CN2CCN(CCCCc3c[nH]c4ccc(-n5cnnc5)cc34)CC2)nc1
The melting point of the first is lower: 67 °C for the first, 115 to 118 °C for the second.

First: Cc1nc(N)c(N)cc1Cl
Second: O=Cc1cnc(Cl)c(Cl)c1
The melting point of the first is higher: 128 to 130 °C for the first, 65 °C for the second.

First: FC(F)Oc1ccc(CN(C(=Nc2ccccc2)N(Cc2ccc(OC(F)F)cc2)C2CCCC2)C2CCCC2)cc1
Second: O=C(NC(Cc1ccccc1)C(=O)O)OCc1ccc(COc2ccc(F)cc2)cc1 (centres undefined)
The melting point of the first is lower: 86.5 to 88 °C for the first, 112 to 113 °C for the second.

Compared with `N#Cc1c(N2CCc3ccccc3CC2)nc(COC2CCCCO2)[nH]c1=O` (centres undefined), `OC[C@@H]1CCCN1c1nc2ccccc2s1` is lower in melting point: 180 to 183 °C for the first, 110 °C for the second.

First: CC(Oc1ccc(Oc2ncc(Cl)cc2F)cc1)C(=O)O (centres undefined)
Second: C[C@H](Oc1ccc(-c2csc(S(N)(=O)=O)c2)cc1)[C@H](O)CCc1cccnc1
The melting point of the first is lower: 95 to 97 °C for the first, 151 to 152 °C for the second.

First: C#CCN(C)c1nc(C(=O)N(C)C)cs1
Second: CCN(CC)C(=O)n1ccc(Sc2ccc(Br)cc2Cl)n1
The melting point of the first is higher: 99 to 100 °C for the first, 77 to 79 °C for the second.

First: COc1cccc2c1C[C@@H](NC=O)CC2
Second: CS(=O)(=O)N1CCSc2cccc(Cl)c2C1
The melting point of the first is higher: 140 to 141 °C for the first, 85 to 86 °C for the second.

First: O=C(O)CCC(=O)c1ccc(-n2cnc3c2CCCC3)cc1
Second: CN(C)CCCn1c2c(c3cc(C(=O)O)ccc31)CCCCCC2
The melting point of the first is higher: 234 to 235 °C for the first, 149 to 150 °C for the second.

First: Cc1oc(-c2ccccc2)nc1CCOc1ccc(C=C2SC(=O)NC2=O)cn1
Second: O=C1c2ccccc2C(=O)c2sc(Nc3ccccc3)nc21
The melting point of the first is lower: 195 to 196 °C for the first, greater than 260 °C for the second.

Compared with `CCN(CC)CCOc1ccc(Nc2nc(N)c(C(=O)c3cccc(OC)c3)s2)cc1`, `COc1ccc(C2CCC(=O)N(CCN(C)C)c3ccccc3C2=O)cc1` (centres undefined) is lower in melting point: 118 to 123 °C for the first, 116 to 117 °C for the second.

First: O=CC=C(c1ccccc1)c1ccccc1
Second: c1ccc(C2(c3ccccc3)CCSCC2)cc1
The melting point of the first is lower: 45 to 46.5 °C for the first, 134 °C for the second.

Compared with `Cc1nc(NC(=O)c2ccccc2OC(F)(F)F)sc1C(=O)NCc1ccccc1`, `COC(=O)c1cc(=O)c(OCc2ccccc2)co1` is lower in melting point: 140 to 141 °C for the first, 134 to 136 °C for the second.

Compared with `Cc1cccc(NC(=O)NC2N=C(c3ccccc3F)c3ccccc3N(CC(=O)NC3C4CC5CC(C4)CC3C5)C2=O)c1` (centres undefined), `Cc1cccc(C(=O)n2nc(Nc3cccc(OCC(=O)NCCN4CCOCC4)c3)nc2N)c1` is lower in melting point: 245 to 246 °C for the first, 145 to 147 °C for the second.

First: C#CCOc1cc(C)nc(-c2cccc(CCC)n2)n1
Second: CCCCN1CCN(c2nc(C)c(C(=O)NCc3cccnc3)s2)C1=O
The melting point of the first is lower: 92.5 °C for the first, 109 to 111 °C for the second.

First: O=C(O)c1c2c(nc3ccc(F)cc13)-c1ccc(-c3ccccc3C(F)(F)F)cc1CCC2
Second: Cc1noc(C)c1-c1nn(C(C)c2oc3ccccc3c(=O)c2-c2cccc(F)c2)c2ncnc(N)c12 (centres undefined)
The melting point of the first is higher: greater than 300 °C for the first, 218 to 222 °C for the second.

Compared with `CC1(C)[C@@H](CNC(=O)C2CCC(F)(F)CC2)CC[C@@]1(C)NCC(=O)N1C[C@@H](F)C[C@H]1C#N`, `CC12CC3CC(C1)CC(CNC(=O)n1cc(F)c(=O)[nH]c1=O)(C3)C2` is lower in melting point: 193 to 195 °C for the first, 172 °C for the second.

Compared with `COc1cc(NC(=O)Nc2ccccc2)ccn1`, `CN1C(c2cccc(F)c2)c2ccccc2S1(=O)=O` (single isomer, unassigned; (+)) is higher in melting point: 127 to 129 °C for the first, 147 °C for the second.

Compared with `N#CCCc1ccc(OCC2(O)CN3CCC2CC3)cc1` (centres undefined), `O=C(COc1ccc(C2=NNC(=O)NC2)cc1)NCCN1CCOCC1` is higher in melting point: 92 to 94 °C for the first, 216 to 217 °C for the second.

Compared with `Cn1ccc(S(=O)(=O)NC(C)(C)C)c1C=O`, `COC(=O)c1c(C)noc1C(=O)NC(C)C` is lower in melting point: 102 to 103 °C for the first, 64 to 66 °C for the second.

First: Cc1nc(N)c2nc(C)n(CCNC(=O)C(C)C)c2c1C
Second: CCOCc1nc2c(N)nc(C)cc2n1CCCCNC(=O)N1CCOCC1
The melting point of the first is higher: 220 to 222 °C for the first, 156 to 160 °C for the second.

First: COCCC1(C(=O)N[C@@H](Cc2ccc(NC(=O)c3cc(C#N)ccc3Cl)cc2)C(=O)O)CCCC1
Second: CCCCCCCCCCOc1ccc(-c2ccc(CCCCC(C)OC(C)=O)cc2)cc1 (centres undefined)
The melting point of the first is higher: 169 to 172 °C for the first, 75 to 76 °C for the second.

First: O=C([C@@H]1C[C@@H]2CCCC[C@@H]2N1)N1CCCC1
Second: CC(=O)Oc1c(C)c(C)c2c(c1C)CCC(C)(C(=O)N1CCN(c3cc(N4CCCC4)nc(N4CCCC4)n3)CC1)O2 (centres undefined)
The melting point of the first is lower: 83 °C for the first, 191 to 192 °C for the second.

Compared with `C[Si]1(C)CCCCCCCCCCCCCC[Si](C)(C)O[Si](C)(C)CCCCCCCCCCCCCC[Si](C)(C)O1`, `COc1nc2ncnn2c(N2CCC(C)CC2)c1-c1ccc(F)cc1Cl` is higher in melting point: 97 °C for the first, 186 °C for the second.

First: CC(c1c[nH]cn1)c1cccc(C(=N)N)c1O (centres undefined)
Second: Cc1c(C(=O)O)oc2ccc(Cc3cccnc3)cc12
The melting point of the first is lower: 191 °C for the first, 223 to 225 °C for the second.

Compared with `CCCCCCOc1ccc2c(ccc3nc(OCCCCCC)ccc32)n1`, `CC(C)(CCCCOCCCc1ccccc1)NCc1c(CO)ccc(O)c1CO` is lower in melting point: 91 °C for the first, 67 to 69 °C for the second.

Compared with `Cc1cc(-n2c(C)nnc2C)cc2ccc(=O)[nH]c12`, `Cn1ccnc1COc1nn2c(-c3ccccc3F)nnc2cc1C1CCC1` is lower in melting point: 308 to 310 °C for the first, 173 °C for the second.

Compared with `CCOC(CBr)(OCC)c1ccc(OC)cc1`, `CCOC(=O)C(CC(N)=O)(C(=O)OCC)n1cccc1` is higher in melting point: 55 to 56 °C for the first, 94 to 95 °C for the second.

For `CC(C)(C)OC(=O)NC(COCCCN)(COCCCN)COCCCN`, the melting point was 96 to 98 °C.
